Measured values from patent publication US11986474B1, “Methods for treating heart failure by administering cardiac sarcomere activators” (Cytokinetics, Incorporated, priority 2023, dated 2024).

Columns and labels:
[1] = test system: cardiomyocyte calcium transient; conditions: cited from earlier work
[2] = GALACTIC-HF plasma concentration of omecamtiv mecarbil (PK-guided dosing); format: in vivo; conditions: Week 8 visit (Week 6 concentration)
Protocol: (§1) In a phase 3 clinical trial, Global Approach to Lowering Adverse Cardiac Outcomes through Improving Contractility in Heart Failure (GALACTIC-HF), all eligible participants were randomized 1:1 to oral administration of either placebo or omecamtiv mecarbil (pharmacokinetic-guided dosing: 25, 37.5 or 50 mg) twice daily. Pre-dose plasma concentrations of omecamtiv mecarbil were measured at weeks 2 and 6 with respective dose adjustments on weeks 4 and 8. The patient and investigator were blinded to the plasma concentrations and dispensed dose.
(§2) Participants randomized to omecamtiv mecarbil were started at the lowest dose of 25 mg twice daily. […] At the end of Week 8, 28.6% of participants were on 25 mg BID (including participants whose plasma concentration results were not available in time for any dose titration visit or participant compliance with dosing was not affirmatively documented by the investigator), which was higher than the anticipated proportion (4.1%) based on population PK modeling. In participants who completed the dosing algorithm as intended and were titrated to 37.5 or 50 mg BID, mean omecamtiv mecarbil plasma concentrations were higher than those in the 25 mg BID dose group. Participants titrated to doses of 37.5 or 50 mg BID tended to have reduced risk of the primary composite endpoint and cardiovascular death compared to those at a dose of 25 mg BID, as shown in Table 2 below.
A summary of participants by dose group at Week 4 (dose selection determined by the Week 2 concentrations of omecamtiv mecarbil), at Week 8 (dose selection determined by the Week 6 concentrations of omecamtiv mecarbil), and the final dose at Week 12, is provided in Table 3. Overall, the proportions of participants receiving each of the omecamtiv mecarbil doses remained generally consistent over time. At the Week 8 visit, 3.0% of participants had their doses adjusted from 50 to 25 mg BID and 1.1% from 37.5 to 25 mg BID. […]

[3] = test system: patients with chronic heart failure with reduced ejection fraction; conditions: cited from earlier work
[4] = test system: patients with heart failure with reduced ejection fraction; conditions: randomized, placebo-controlled phase 3 clinical trial; cited from earlier work
[5] = test system: patients with heart failure with reduced ejection fraction; experiment: GALACTIC-HF phase 3 clinical trial, outcomes by titrated dose group; format: in vivo, human; conditions: for Hazard Ratio, CV Death / Hazard Ratio, Primary Endpoint: OM vs PBO
Protocol: In a phase 3 clinical trial, Global Approach to Lowering Adverse Cardiac Outcomes through Improving Contractility in Heart Failure (GALACTIC-HF), the following dosing regimen was used to assess treatment effect with omecamtiv mecarbil in patients with heart failure with reduced ejection fraction. At the initiation of treatment, a first dose level of 25 mg twice daily was orally administered to subjects randomized to receive omecamtiv mecarbil. At study visit week 2, a predose blood sample was collected. At week 4, subjects with week 2 omecamtiv mecarbil predose plasma concentration of less than 200 ng/mL would increase their dose level to 50 mg twice daily; subjects with week 2 plasma concentrations greater than or about 200 ng/mL but less than 300 ng/mL would increase their dose level to 37.5 mg twice daily; subjects with week 2 plasma concentrations greater than or about 300 ng/mL but less than 1000 ng/mL would maintain a dose level of 25 mg twice daily; and subjects with plasma concentration greater than or about 1000 ng/mL would start administration of placebo twice daily. At weeks 6, a predose blood sample was collected to confirm plasma concentration achieved and assess if changes to the dose should be made. […] The dosing regimen used in the GALACTIC-HF study was associated with reduced risk of heart failure outcomes and a very low incidence of excessive concentrations of omecamtiv mecarbil (e.g., plasma concentration over 1000 ng/mL). Treatment results were described in, for example, Cardiac Myosin Activation with Omecamtiv Mecarbil in Systolic Heart Failure (Teerlink et al., N. Engl. J. Med., 2021, 384; 2) and NCT02929329.
as §1, §2

[6] = patients with chronic HFrEF, treatment for 20 weeks
[7] = 25 mg BID dose group, Cox Model Adjusting for Significant Baseline Covariates
[8] = 25 mg BID dose group, Planned Primary Analysis Cox Model
[9] = 37.5 mg BID dose group, Cox Model Adjusting for Significant Baseline Covariates
[10] = 37.5 mg BID dose group, Planned Primary Analysis Cox Model
[11] = 50 mg BID dose group, Cox Model Adjusting for Significant Baseline Covariates
[12] = 50 mg BID dose group, Planned Primary Analysis Cox Model

COC(=O)N1CCN(Cc2cccc(NC(=O)Nc3ccc(C)nc3)c2F)CC1 [omecamtiv mecarbil, methyl 4-(2-fluoro-3-(3-(6-methylpyridin-3-yl)ureido)benzyl)piperazine-1-carboxylate]
effect on intracellular calcium transients [1]: no effect | participants with down titration due to plasma concentration exceeding 750 ng/mL, number (%) [2]: 9 (0.22%) | participants with down titration, plasma concentration in the 750 to <1,000 ng/mL range [2]: 8 participants | concentration at 6 weeks ([2]; human, plasma, oral, read-out: plasma concentration of the 1 down-titrated participant above 1,000 ng/mL): 1000 ng/mL | cardiac performance ([3]; early clinical studies, short-term intravenous administration): improved | plasma concentration above which the risk of cardiac ischemic events is increased ([3]; likely due to shortening of diastole and decreased coronary perfusion): exceeding 1200 ng/mL | left ventricular systolic and diastolic volumes [3, 6]: decreased | left ventricular systolic function [3, 6]: increased | natriuretic peptide concentrations and heart rate [3, 6]: reduced | relative risk of a heart-failure event or death from cardiovascular causes vs placebo [4]: lower relative risk | risk of myocardial ischemic events, ventricular arrhythmias, or death from cardiovascular causes or any cause [4]: without evidence of an increase | Hazard Ratio, CV Death [5, 7]: 1.11 | Hazard Ratio, Primary Endpoint [5, 7]: 0.93 | Hazard Ratio, CV Death [5, 8]: 1.18 | Hazard Ratio, Primary Endpoint [5, 8]: 1.00 | Primary Endpoint, participants n/N ([5]; 37.5 mg BID dose group, OM arm): OM (225/602) vs PBO (1,477/3,897) | Hazard Ratio, CV Death [5, 9]: 0.94 | Hazard Ratio, Primary Endpoint [5, 9]: 0.90 | Hazard Ratio, CV Death [5, 10]: 1.00 | Hazard Ratio, Primary Endpoint [5, 10]: 0.93 | Hazard Ratio, CV Death [5, 11]: 0.98 | Hazard Ratio, Primary Endpoint [5, 11]: 0.89 | Hazard Ratio, CV Death [5, 12]: 0.91 | Hazard Ratio, Primary Endpoint [5, 12]: 0.87
